Laboratory results from ChEMBL document CHEMBL3813660, “Kinetic and X-ray crystallographic investigations of substituted 2-thio-6-oxo-1,6-dihydropyrimidine-benzenesulfonamides acting as carbonic anhydrase inhibitors” (Bioorg Med Chem, 2016).

Columns and labels:
Carbonic anhydrase 2 = Carbonic anhydrase 2 (Homo sapiens, UniProt P00918); test: Inhibition of human carbonic anhydrase 2 preincubated for 6 hrs at 4 degC measured for 10 to 100 secs by stopped-flow carbon dioxide hydration assay
Carbonic anhydrase 1 = Carbonic anhydrase 1 (Homo sapiens, UniProt P00915); test: Inhibition of human carbonic anhydrase 1 preincubated for 6 hrs at 4 degC measured for 10 to 100 secs by stopped-flow carbon dioxide hydration assay
Chain of Carbonic anhydrase 1 (P00915 whole entry): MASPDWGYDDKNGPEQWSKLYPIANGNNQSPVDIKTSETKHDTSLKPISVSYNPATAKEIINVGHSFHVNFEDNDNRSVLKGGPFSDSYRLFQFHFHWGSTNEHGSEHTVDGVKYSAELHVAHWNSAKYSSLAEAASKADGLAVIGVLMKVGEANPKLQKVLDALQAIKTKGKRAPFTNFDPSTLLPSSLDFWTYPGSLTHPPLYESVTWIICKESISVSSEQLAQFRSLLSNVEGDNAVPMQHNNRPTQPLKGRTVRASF

Carbonic anhydrase 12 = Carbonic anhydrase 12 (Homo sapiens, UniProt O43570); test: Inhibition of human carbonic anhydrase 12 preincubated for 6 hrs at 4 degC measured for 10 to 100 secs by stopped-flow carbon dioxide hydration assay
Chain of Carbonic anhydrase 12 (O43570 whole entry, the tested form may be a part): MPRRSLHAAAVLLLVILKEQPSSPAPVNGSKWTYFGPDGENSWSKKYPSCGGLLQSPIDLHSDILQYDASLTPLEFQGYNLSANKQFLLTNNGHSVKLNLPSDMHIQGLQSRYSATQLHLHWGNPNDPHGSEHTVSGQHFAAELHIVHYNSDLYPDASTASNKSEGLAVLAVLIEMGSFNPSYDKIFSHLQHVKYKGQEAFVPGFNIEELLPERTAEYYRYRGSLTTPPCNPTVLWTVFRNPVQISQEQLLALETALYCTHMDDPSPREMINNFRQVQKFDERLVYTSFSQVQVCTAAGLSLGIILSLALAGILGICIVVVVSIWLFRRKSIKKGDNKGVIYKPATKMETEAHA

Carbonic anhydrase 9 = Carbonic anhydrase 9 (Homo sapiens, UniProt Q16790); test: Inhibition of human carbonic anhydrase 9 catalytic domain preincubated for 6 hrs at 4 degC measured for 10 to 100 secs by stopped-flow carbon dioxide hydration assay

Compound	Ki (Carbonic anhydrase 2) [nM]	Ki (Carbonic anhydrase 1) [nM]	Ki (Carbonic anhydrase 12) [nM]	Ki (Carbonic anhydrase 9) [nM]
CC(Sc1nc(-c2ccc(Cl)cc2)c(C#N)c(=O)[nH]1)C(=O)Nc1ccc(S(N)(=O)=O)cc1 (stereo not given)	5	83	9.2	
CC(Sc1nc(-c2ccc(Cl)c(Cl)c2)c(C#N)c(=O)[nH]1)C(=O)Nc1ccc(S(N)(=O)=O)cc1 (stereo not given)	5.1	48	7.8	19
CC(Sc1nc(-c2ccc(Cl)c(F)c2)c(C#N)c(=O)[nH]1)C(=O)Nc1ccc(S(N)(=O)=O)cc1 (stereo not given)	6.1	34	9.1	37
CCC(Sc1nc(-c2cccc(OC)c2)c(C#N)c(=O)[nH]1)C(=O)Nc1ccc(S(N)(=O)=O)cc1 (stereo not given)	6.4	32	24	24
